Measured values: patent US9365613B2, “Acylated 4-amidino- and -4-guanidinobenzylamines for inhibition of plasma kallikrein” (The Medicines Company (Leipzig) GmbH, priority 2003, dated 2016)

Assays:
Format in all cases: biochemical
plasma kallikrein (PK) = plasma kallikrein (PK) (Homo sapiens, UniProt P03952); experiment: Determining the inhibitory constants: inhibition of PK (substrate Bzl-Pro-Phe-Arg-pNA); settings: Tris buffer pH 8.0, 25° C.; mean of at least three determinations
Experimental: (§1) The inhibitory effect for the individual enzymes was determined in analogy with a method which has already been described (Stürzebecher et al., J. Med. Chem. 40, 3091-3099, 1997).
(§2) After 3 min, the reaction was terminated by adding 25 μl of acetic acid (50%) and the absorption at […] was determined using a Microplate Reader (Labsystems iEMS Reader MF). The Ki values were determined, in accordance with Dixon (Biochem. J. 55, 170-171, 1953), by means of linear regression and using a computer program. The Ki values are the mean of at least three determinations.

human factor XIIa = biological target: T1, human factor XIIa (Homo sapiens, UniProt P00748); experiment: Inhibitory constants for factor XIIa (substrate H-D-HHT-Gly-Arg-pNA, Chromozym XII); settings: read-out: Ki F XIIa
T1 construct: purchased Haemochrom Diagnostica GmbH, Essen, Germany
Experimental: as §1, §2
(§3) The inhibition of factor XIa and factor XIIa was determined in an analogous manner. When determining the inhibitory constants for human factor XIa (Haemochrom Diagnostica GmbH, Essen, Germany), H-D-Lys(Z)-Pro-Arg-pNA (Chromozym PCa, Roche Diagnostics GmbH, Mannheim, Germany) was used as the substrate.
H-D-HHT-Gly-Arg-pNA (Chromozym XII, Roche Diagnostics GmbH, Mannheim, Germany) was used as the substrate for measuring the inhibitory constants of human factor XIIa (Haemochrom Diagnostica GmbH, Essen, Germany).

human factor XIa = biological target: T2, human factor XIa (Homo sapiens, UniProt P03951); experiment: Inhibitory constants for factor XIa (substrate H-D-Lys(Z)-Pro-Arg-pNA, Chromozym PCa); settings: read-out: Ki F XIa
T2 construct: purchased Haemochrom Diagnostica GmbH, Essen, Germany
Experimental: as §1, §2, §3

thrombin = thrombin (UniProt P00735); experiment: Inhibitory constants for thrombin; settings: read-out: Ki Thrombin

plasma kallikrein (PK), sequence (P03952 391-638 limits assumed, species assumed): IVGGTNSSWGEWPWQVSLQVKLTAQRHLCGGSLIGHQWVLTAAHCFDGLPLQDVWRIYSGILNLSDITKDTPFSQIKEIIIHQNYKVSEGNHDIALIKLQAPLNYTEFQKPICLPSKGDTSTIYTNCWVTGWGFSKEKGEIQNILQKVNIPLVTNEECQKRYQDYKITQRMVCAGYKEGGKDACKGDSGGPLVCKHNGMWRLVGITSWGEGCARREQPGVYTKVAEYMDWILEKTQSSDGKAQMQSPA
plasma kallikrein (PK), sequence (P03952 20-390 partner limits assumed, species assumed): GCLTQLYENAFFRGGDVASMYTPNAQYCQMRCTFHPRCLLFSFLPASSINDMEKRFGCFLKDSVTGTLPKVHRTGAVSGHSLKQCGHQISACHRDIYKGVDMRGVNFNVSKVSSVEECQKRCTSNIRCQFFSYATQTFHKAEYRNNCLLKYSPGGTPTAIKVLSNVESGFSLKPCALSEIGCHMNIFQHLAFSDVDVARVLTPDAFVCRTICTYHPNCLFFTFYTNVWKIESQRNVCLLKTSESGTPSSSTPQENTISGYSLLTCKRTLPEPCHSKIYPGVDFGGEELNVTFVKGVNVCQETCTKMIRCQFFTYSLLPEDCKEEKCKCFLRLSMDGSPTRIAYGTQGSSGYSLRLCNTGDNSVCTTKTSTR
T1 sequence (P00748 373-615 limits assumed, other chains not shown): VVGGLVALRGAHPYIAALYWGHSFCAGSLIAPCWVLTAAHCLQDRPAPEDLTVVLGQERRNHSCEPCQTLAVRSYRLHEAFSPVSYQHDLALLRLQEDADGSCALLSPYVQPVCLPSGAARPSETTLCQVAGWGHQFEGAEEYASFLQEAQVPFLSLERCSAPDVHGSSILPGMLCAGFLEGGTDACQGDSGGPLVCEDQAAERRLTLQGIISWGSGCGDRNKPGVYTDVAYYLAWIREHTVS
T2 sequence (P03951 388-625 limits assumed): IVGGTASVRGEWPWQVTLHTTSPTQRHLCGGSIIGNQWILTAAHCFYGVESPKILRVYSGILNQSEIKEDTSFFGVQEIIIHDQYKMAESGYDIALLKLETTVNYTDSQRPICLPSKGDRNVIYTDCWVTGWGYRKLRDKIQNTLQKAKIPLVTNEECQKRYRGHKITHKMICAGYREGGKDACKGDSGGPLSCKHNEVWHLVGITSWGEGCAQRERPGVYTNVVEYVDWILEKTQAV
T2 sequence (P03951 19-387 partner limits assumed): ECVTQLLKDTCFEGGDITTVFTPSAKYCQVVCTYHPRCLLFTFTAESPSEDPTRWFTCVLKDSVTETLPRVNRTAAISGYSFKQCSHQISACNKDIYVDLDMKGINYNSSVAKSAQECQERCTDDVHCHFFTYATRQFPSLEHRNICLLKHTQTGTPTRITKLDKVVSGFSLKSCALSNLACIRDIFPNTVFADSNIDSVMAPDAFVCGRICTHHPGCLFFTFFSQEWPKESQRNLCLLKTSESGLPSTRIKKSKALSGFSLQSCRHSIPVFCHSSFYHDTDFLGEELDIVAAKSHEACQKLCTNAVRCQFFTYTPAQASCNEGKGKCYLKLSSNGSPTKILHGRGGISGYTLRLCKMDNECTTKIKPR

Ki (plasma kallikrein (PK)) [µM]	Ki (human factor XIIa) [µM]	Ki (human factor XIa) [µM]	Ki (thrombin) [µM]	SMILES
1.7	16	2.2	13	N=C(N)c1ccc(CNC(=O)CNC(=O)C(CO)NS(=O)(=O)Cc2ccccc2)cc1 (centres unmarked) [Inhibitor 1]
0.07	9.2	0.11	0.11	C[C@H](NC(=O)[C@@H](CO)NS(=O)(=O)Cc1ccccc1)C(=O)NCc1ccc(C(=N)N)cc1 [Inhibitor 2]
0.054	5.1	0.1	0.012	N=C(N)c1ccc(CNC(=O)C2CCCN2C(=O)C(CO)NS(=O)(=O)Cc2ccccc2)cc1 (centres unmarked) [Inhibitor 3]
3.7	> 1000		> 1000	N=C(N)c1ccc(CNC(=O)[C@H](CC(=O)O)NC(=O)[C@@H](CO)NS(=O)(=O)Cc2ccccc2)cc1 [Inhibitor 4]
1.1	> 1000		38	N=C(N)c1ccc(CNC(=O)[C@H](CCC(=O)O)NC(=O)[C@@H](CO)NS(=O)(=O)Cc2ccccc2)cc1 [Inhibitor 5]
0.047	25	0.13	0.49	N=C(N)c1ccc(CNC(=O)[C@H](CCC(N)=O)NC(=O)[C@@H](CO)NS(=O)(=O)Cc2ccccc2)cc1 [Inhibitor 6]
0.05	15	0.39	0.65	N=C(N)c1ccc(CNC(=O)[C@H](CN)NC(=O)[C@@H](CO)NS(=O)(=O)Cc2ccccc2)cc1 [Inhibitor 8]
0.042	13	0.28	6.9	N=C(N)c1ccc(CNC(=O)[C@H](CNC(=O)OCc2ccccc2)NC(=O)[C@@H](CO)NS(=O)(=O)Cc2ccccc2)cc1 [Inhibitor 9]
0.016	21	0.89	4.3	N=C(N)c1ccc(CNC(=O)[C@H](CCCCN)NC(=O)[C@@H](CO)NS(=O)(=O)Cc2ccccc2)cc1 [Inhibitor 10]
0.0035	15	0.3	0.18	N=C(N)c1ccc(CNC(=O)[C@H](CCCCNC(=O)OCc2ccccc2)NC(=O)[C@@H](CO)NS(=O)(=O)Cc2ccccc2)cc1 [Inhibitor 11]
0.079	16	0.77	4.7	N=C(N)NCCC[C@H](NC(=O)[C@@H](CO)NS(=O)(=O)Cc1ccccc1)C(=O)NCc1ccc(C(=N)N)cc1 [Inhibitor 12]
0.24	51	0.25	4	C[C@@H](O)[C@H](NC(=O)[C@@H](CO)NS(=O)(=O)Cc1ccccc1)C(=O)NCc1ccc(C(=N)N)cc1 [Inhibitor 13]
0.091	23	0.33	0.3	C[C@@H](OCc1ccccc1)[C@H](NC(=O)[C@@H](CO)NS(=O)(=O)Cc1ccccc1)C(=O)NCc1ccc(C(=N)N)cc1 [Inhibitor 14]
0.16	80	0.3	14	N=C(N)c1ccc(CNC(=O)[C@H](CO)NC(=O)[C@@H](CO)NS(=O)(=O)Cc2ccccc2)cc1 [Inhibitor 15]
0.025	9.8	0.3	0.48	N=C(N)c1ccc(CNC(=O)[C@H](COCc2ccccc2)NC(=O)[C@@H](CO)NS(=O)(=O)Cc2ccccc2)cc1 [Inhibitor 16]
0.02	> 1000		8.5	N=C(N)c1ccc(CNC(=O)C[C@H](CO)NC(=O)[C@@H](CO)NS(=O)(=O)Cc2ccccc2)cc1 [Inhibitor 17]
0.021	0.97	0.92	1.6	N=C(N)c1ccc(CNC(=O)[C@H](Cc2ccccc2)NC(=O)[C@@H](CO)NS(=O)(=O)Cc2ccccc2)cc1 [Inhibitor 18]
0.048	2.8	0.084	1.2	N=C(N)c1ccc(CNC(=O)[C@H](CCc2ccccc2)NC(=O)[C@@H](CO)NS(=O)(=O)Cc2ccccc2)cc1 [Inhibitor 19]
0.7	> 1000	0.6	170	N=C(N)c1ccc(CNC(=O)CNC(=O)[C@@H](CO)NS(=O)(=O)Cc2ccc(C(=O)O)cc2)cc1 [Inhibitor 20]
4.2	42	8.1	9.4	COC(=O)c1ccc(CS(=O)(=O)N[C@H](CO)C(=O)NCC(=O)NCc2ccc(C(=N)N)cc2)cc1 [Inhibitor 21]
0.016	17	0.015	2.3	C[C@H](NC(=O)[C@@H](CO)NS(=O)(=O)Cc1ccc(C(=O)O)cc1)C(=O)NCc1ccc(C(=N)N)cc1 [Inhibitor 22]

Ki (plasma kallikrein (PK)) [µM]	Ki (human factor XIIa) [µM]	Ki (human factor XIa) [µM]	Ki (thrombin) [µM]	SMILES
0.029	> 1000	0.17	120	N=C(N)c1ccc(CNC(=O)[C@H](CO)NC(=O)[C@@H](CO)NS(=O)(=O)Cc2ccc(C(=O)O)cc2)cc1 [Inhibitor 23]
0.16	19	0.87	4.2	COC(=O)c1ccc(CS(=O)(=O)N[C@H](CO)C(=O)N[C@@H](CO)C(=O)NCc2ccc(C(=N)N)cc2)cc1 [Inhibitor 24]
6.3	17	6	8	N=C(N)c1ccc(CNC(=O)CNC(=O)[C@@H](CO)NS(=O)(=O)Cc2ccc(CN)cc2)cc1 [Inhibitor 25]
0.032	14		0.044	C[C@@H](O)[C@H](NC(=O)[C@@H](COC(C)(C)C)NS(=O)(=O)Cc1ccccc1)C(=O)NCc1ccc(C(=N)N)cc1 [Inhibitor 38]
0.029	7.5		2.2	CC(C)(C)OC[C@@H](NS(=O)(=O)Cc1ccc(C(=O)O)cc1)C(=O)NCC(=O)NCc1ccc(C(=N)N)cc1 [Inhibitor 46]
0.086	13		< 0.001	N#Cc1cccc(CS(=O)(=O)N[C@H](CC2CCCCC2)C(=O)N2CCC[C@H]2C(=O)NCc2ccc(C(=N)N)cc2)c1 [Inhibitor 52]
0.011	6.1		0.0029	CC(C)(C)OC[C@@H](NS(=O)(=O)Cc1ccccc1)C(=O)N[C@@H](CCCCNC(=O)C(F)(F)F)C(=O)NCc1ccc(C(=N)N)cc1 [Inhibitor 62]
0.014	61		0.12	CC(C)(C)OC[C@@H](NS(=O)(=O)Cc1ccccc1)C(=O)N[C@@H](Cc1c[nH]cn1)C(=O)NCc1ccc(C(=N)N)cc1 [Inhibitor 64]
0.016	4		0.0018	CC(C)(C)OC[C@@H](NS(=O)(=O)Cc1ccc(CC(=O)O)cc1)C(=O)N1CCC[C@H]1C(=O)NCc1ccc(C(=N)N)cc1 [Inhibitor 66]
0.019	6.8		0.038	CC(C)(C)OC[C@@H](NS(=O)(=O)Cc1ccccc1)C(=O)N[C@@H](CCONC(=N)N)C(=O)NCc1ccc(C(=N)N)cc1 [Inhibitor 68]
0.02	1.6		0.91	N=C(N)c1ccc(CNC(=O)[C@H](CO)NC(=O)[C@@H](CCc2ccncc2)NS(=O)(=O)Cc2ccccc2)cc1 [Inhibitor 69]
0.025	2.4		0.0023	CC(C)(C)OC[C@@H](NS(=O)(=O)Cc1ccc(C(=O)O)cc1)C(=O)N1CCC[C@H]1C(=O)NCc1ccc(C(=N)N)cc1 [Inhibitor 70]
0.029	11		0.0021	N=C(N)c1ccc(CNC(=O)[C@H](CCCCNC(=O)CCC(=O)O)NC(=O)[C@@H](CC2CCCCC2)NS(=O)(=O)Cc2ccccc2)cc1 [Inhibitor 71]
0.22	0.36	0.028		N=C(N)c1ccc(CNC(=O)[C@H](CCC(=O)O)NC(=O)[C@@H](CCc2ccc(O)cc2)NS(=O)(=O)Cc2ccccc2)cc1 [Inhibitor 72]
0.13	0.28	0.078		N=C(N)c1ccc(CNC(=O)[C@H](CO)NC(=O)[C@@H](CCc2ccc(O)cc2)NS(=O)(=O)Cc2ccccc2)cc1 [Inhibitor 73]
0.12	0.78	0.61		N=C(N)c1ccc(CNC(=O)CNC(=O)[C@@H](CCc2ccc(O)cc2)NS(=O)(=O)Cc2ccccc2)cc1 [Inhibitor 75]
0.39	0.15	0.27		N=C(N)c1ccc(CNC(=O)CNC(=O)[C@@H](CCc2ccccc2)NS(=O)(=O)Cc2ccccc2)cc1 [Inhibitor 76]
0.045	0.26	0.12		N=C(N)c1ccc(CNC(=O)CNC(=O)[C@@H](CCc2ccccc2)NS(=O)(=O)Cc2ccc(N)cc2)cc1 [Inhibitor 78]
0.075	0.37		0.14	N=C(N)c1ccc(CNC(=O)CNC(=O)[C@H](NS(=O)(=O)Cc2ccccc2)C2Cc3ccccc3C2)cc1 [Inhibitor 83]
0.13	0.4	1.1		N=C(N)c1ccc(CNC(=O)CNC(=O)C(CCc2ccncc2)NS(=O)(=O)Cc2ccccc2)cc1 (centres unmarked) [Inhibitor 85]
0.39			2.8	N=C(N)c1ccc(CNC(=O)[C@H](CCCCNC(=O)CCCC(=O)O)NC(=O)[C@@H](CO)NS(=O)(=O)Cc2ccccc2)cc1 [Inhibitor 86]
